# According to patent US20190150437A1, “USE OF SESQUITERPENES AND THEIR ANALOGS AS GREEN INSECTICIDES FOR CONTROLLING DISEASE VECTORS AND PLANT PESTS” (Ohio State Innovation Foundation, priority 2016, published 2019):
# Entries after “also recorded” stand apart in the source; their conditions may differ. Marks after values point to notes of the source that are not given here.
# Assays:
# A. aegypti adult females = test: Adult female mosquito toxicity, applied to thoracic cuticle, 24 h; assay type: in vivo, Aedes aegypti; details: for Adult female mosquitoes ED50 in μg/mg mosquito (95% CI), A. aegypti: adult females, 24 h after applying to thoracic cuticle, in acetone
# Protocol: (§1) A,C) Concentration-toxicity relationships in 1st instar larvae 24 h after adding CINEX or indicated compound to the rearing water. B,D) Dose-toxicity relationships in adult females 24 h after applying CINEX or indicated compound to the thoracic cuticle. CDIAL=OSU-1.
# (§2) Each compound of cinnamodial (CDIAL), cinnafragrin A (CM18) and cinnamosmolide (CMOS) were isolated form the barks of the Madagascan plants Cinnamosma fragrans, Cinnamosma macrocarpa and Cinnamosma madagascariensis. Each was dissolved in 100% acetone and applied directly to the cuticle of adult female mosquitoes (Aedes aegypti, Anopheles gambiae, and Culex pipiens) or 3rd instar nymph soybean aphids (Aphis glycines). The bark extract and the isolated compounds was toxic to larval and adult female mosquitoes within 24 hr in a concentration/dose dependent manner (FIGS. 4 and 5). Among the isolated compounds.
# [1] = system: Alpha-glucosidase (EC 3.2.1.20); test: Alpha-Glucosidase Inhibition Assay; assay type: biochemical; details: for alpha-Glucosidase inhibition (%) / Alpha-glucosidase inhibitory activity, in words: 0.1 mg/mL final concentration
# Protocol: Alpha-Glucosidase Inhibition Assay.
# The assay was performed according to the 126 Journal of Natural Products, 2008. Vol. 71. No. 1 Notes
# method described by Oki and co-workers, with slight modifications.^13 alpha-Glucosidase was purchased from Toyobo Co., Ltd. (Osaka. Japan). The enzyme solution was prepared by dissolving 0.6 U/mL of Alpha-glucosidase in 100 mM phosphate buffer (pH 7) containing 2 g/L bovine serum albumin and 0.2 g/L NaN3. p-Nitrophenyl-R-D-glucopyranoside (5 mM) in the same buffer solution (pH 7) was used as a substrate solution. The enzyme solution (50 μL) and the test compounds (10 μL), dissolved in DMSO to a final concentration of 0.1 mg/mL, were mixed in each well of the microliter 96-well culture plates and measured spectrophotometrically (absorbance 405 nm) at zero time, using a microplate reader (Bio-Rad model 550 microplate reader). The mixture was preincubated for 5 min at room temperature before the addition of substrate solution ([…]) and followed by a 5 min incubation at room temperature. The increase in absorbance from zero time was measured. The inhibitory activity was expressed as […] minus the relative absorbance difference (%) of test compounds to absorbance change of the control where the test solution was replaced by DMSO. 1-Deoxynojirimycin (Wako Pure Chemical Industries, Ltd.) 0.3 mM in DMSO was used as a positive control.
# [2] = system: A. aegypti 1st instar larvae; test: Larval mosquito toxicity, compound added to rearing water, 24 h; assay type: in vivo, Aedes aegypti; details: for Larval mosquitoes EC50 in ppm (95% CI), A. aegypti: larvae, 24 h after adding to rearing water
# Protocol: as §1, §2
# [3] = system: soybean aphid Aphis glycines; test: Soybean aphid toxicity, applied to cuticle of 3rd instar nymphs, 24 h; assay type: in vivo; details: for ED50 in aphids: 3rd instar nymphs, 24 h after application to cuticle
# Protocol: Dose-toxicity relationships in 3rd instar nymphs 24 h after adding CINEX or indicated compound to the thoracic cuticle. CDIAL=OSU-1.
# as §2
# [4] = system: Alpha-glucosidase (EC 3.2.1.20); details: reported in references 2 and 3; cited from earlier work
# [5] = system: adult female Aedes aegpti; test: Blood-feeding bioassay (mosquito repellency, membrane feeder); assay type: in vivo, Aedes aegypti; details: 20.8 μg/cm^2 on nylon fabric covering the blood source, 1 h
# Source text: FIG. 8 is a graph showing repellent efficacy of CINEX and CDIAL (OSU-1) compared to DEET, an industry standard. Values are means±SEM; N=31, 9, 5, and 15 respectively for Control, DEET, CINEX, and CDIAL. Lower-case letters indicate statistical categorization of the means as determined by a one-way ANOVA with a Newman-Keuls posttest (P<0.05).
# We used a blood-feeding bioassay to test the efficacy of OSU-1 (CDIAL) and the C. fragrans bark extract (CINEX) to repel mosquitoes from feeding on a blood source. In brief, cages of 20 mosquitoes (adult female Aedes aegpti) were starved for 24 h before being allowed to feed on a membrane feeder (Hemotek) containing defibrinated rabbit blood. After 1 h, the mosquitoes were immobilized on ice and the number of individuals with blood in their abdomen was counted. The membrane feeder maintains the blood at a constant temperature of 37° C. (human body temperature) and is covered with a collagen membrane that mimics human skin. Mosquitoes pierce through the collagen membrane with their proboscis to obtain the blood. […] Lower-case letters indicate statistical categorization of the means as determined by a one-way ANOVA with a Newman-Keuls posttest (P<0.05).
# A. gambiae adult females = test: Adult female mosquito toxicity, applied to thoracic cuticle, 24 h; assay type: in vivo, Anopheles gambiae; details: 24 h after applying to thoracic cuticle, in acetone
# Protocol: (§3) The concentration/dose-toxicity relationships for Ae. aegypti from FIG. 4 are superimposed to facilitate comparisons.
# as §2
# C. pipiens larvae = test: Larval mosquito toxicity, compound added to rearing water, 24 h; assay type: in vivo, Culex pipiens; details: 24 h after adding to rearing water
# Protocol: as §3, §2
# C. pipiens adult females = test: Adult female mosquito toxicity, applied to thoracic cuticle, 24 h; assay type: in vivo, Culex pipiens; details: 24 h after applying to thoracic cuticle, in acetone
# Protocol: as §3, §2
# A. gambiae larvae = test: Larval mosquito toxicity, compound added to rearing water, 24 h; assay type: in vivo, Anopheles gambiae; details: 24 h after adding to rearing water
# Protocol: as §3, §2
Molecule,alpha-Glucosidase inhibition (%) [1],"Adult female mosquitoes ED50 in μg/mg mosquito (95% CI), A. aegypti (A. aegypti adult females)","Larval mosquitoes EC50 in ppm (95% CI), A. aegypti [2]",ED50 in aphids [3] [μg/aphid],"Alpha-glucosidase inhibitory activity, in words [1]",also measured
"CC(=O)O[C@@H]1C=C2C(=O)OCC2(O)[C@@]2(C)CCCC(C)(C)C12 (stereo partly shown) [CMOS, cinnamosmolide]",20.0%,3.94* μg/mg mosquito,134.4* ppm,2.5,,
"CC(=O)O[C@@H]1C=C(C2OC3OC(O)C4=C[C@@H](OC(C)=O)C5C(C)(C)CCC[C@]5(C)[C@]43O2)[C@@](O)(C=O)[C@@]2(C)CCCC(C)(C)C12 (stereo partly shown) [CM18, cinnafragrin A]",,2.03* μg/mg mosquito,22.6 ppm,1.7,,
"CC(=O)O[C@@H]1C=C(C=O)[C@@](O)(C=O)[C@@]2(C)CCCC(C)(C)C12 (stereo partly shown) [CDIAL, cinnamodial]",83.7%,0.09 μg/mg mosquito,21.6 ppm,0.38,most potent activity,"Alpha-glucosidase inhibition, in words, from earlier papers [4]: strong inhibition; Percentage of mosquitoes feeding on a blood source, in words [5]: significantly reduced; Toxicity to adult female mosquitoes, in words (A. aegypti adult females; within 24 hr, dose dependent): most potent and efficacious; Adult female mosquitoes ED50 in μg/mg mosquito (95% CI), A. gambiae (A. gambiae adult females): 0.05† μg/mg mosquito; Larval mosquitoes EC50 in ppm (95% CI), C. pipiens (C. pipiens larvae): 13.3† ppm; Toxicity to larval mosquitoes, in words ([2]; within 24 hr, concentration dependent): most potent and efficacious; Adult female mosquitoes ED50 in μg/mg mosquito (95% CI), C. pipiens (C. pipiens adult females): 0.17† μg/mg mosquito; Larval mosquitoes EC50 in ppm (95% CI), A. gambiae (A. gambiae larvae): 29.8 ppm; Toxicity to aphids, in words ([3]; within 24 h of application): most potent"
cinnamadin [Compound 1],14.9%,,,,moderate effects,
"CC1(C)CCC[C@]2(C)[C@H](C=O)C(C=O)=CC[C@@H]12 [isopolygodial, reference compound]",,,,,,"Alpha-glucosidase inhibition, in words, from earlier papers [4]: did not show any activity"
"CC1(C)CCC[C@@]2(C)[C@H]1[C@H](O)C=C1C(=O)OC[C@]12O [Compound 3, pereniporin B]",7.2%,,,,,
"OC[C@H]1NC[C@H](O)[C@@H](O)[C@@H]1O [1-deoxynojirimycin, reference compound]",,,,,,"alpha-Glucosidase inhibition (%), positive control ([1]; 0.3 mM in DMSO, positive control): 100%"

# Further lines, with some results ahead:
alpha-Glucosidase inhibition (%) [1],Molecule,"Adult female mosquitoes ED50 in μg/mg mosquito (95% CI), A. aegypti (A. aegypti adult females)","Larval mosquitoes EC50 in ppm (95% CI), A. aegypti [2]",ED50 in aphids [3] [μg/aphid],"Alpha-glucosidase inhibitory activity, in words [1]",also measured
2.1%,"CC1(C)CCC[C@]2(C)[C@@H](C=O)C(C=O)=CC[C@@H]12 [Compound 5, polygodial]",,,,only slight activity; also recorded: did not show any activity,
46.2%,"CC(=O)O[C@@H]1[C@@H](O)C2=C(C(=O)OC2)[C@@]2(C)CCCC(C)(C)[C@H]12 [Compound 4, ugandensolide]",,,,moderate effects; also recorded: moderate activity,
not active,"COC1OC(OC)C2(O)C1=CC(OC(C)=O)C1C(C)(C)CCCC12C (stereo not shown) [Compound 2, cinnamodial 11R,12-dimethyl acetal]",,,,,
